How the values were obtained:
D(4) dopamine receptor = biological target: T1, D(4) dopamine receptor (Homo sapiens, UniProt P21917); test: Displacement of [3H]-(R)-(+)-7-OH-DPAT from recombinant human D4.4 receptor expressed in HEK293 cell membranes measured after 90 mins by microbeta scintillation counting analysis
T1 sequence (P21917 whole entry): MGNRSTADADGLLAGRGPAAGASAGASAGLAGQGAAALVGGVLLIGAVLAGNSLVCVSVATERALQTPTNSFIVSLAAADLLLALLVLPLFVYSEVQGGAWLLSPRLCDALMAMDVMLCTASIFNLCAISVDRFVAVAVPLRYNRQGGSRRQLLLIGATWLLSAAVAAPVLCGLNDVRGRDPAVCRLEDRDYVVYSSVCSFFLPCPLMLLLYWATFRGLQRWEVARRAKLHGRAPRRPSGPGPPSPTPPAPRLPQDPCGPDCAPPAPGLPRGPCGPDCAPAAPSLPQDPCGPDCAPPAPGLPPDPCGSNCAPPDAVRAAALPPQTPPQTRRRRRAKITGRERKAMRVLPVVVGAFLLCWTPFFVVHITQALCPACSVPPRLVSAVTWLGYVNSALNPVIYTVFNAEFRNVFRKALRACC

Homo sapiens [1] = species on record: Homo sapiens; test: Selectivity ratio of Ki for displacement of [3H]-(R)-(+)-7-OH-DPAT from recombinant human D2L receptor expressed in HEK293 cell membranes to Ki for displacement of [3H]-(R)-(+)-7-OH-DPAT from recombinant human D3 receptor expressed in HEK293 cell membranes
[2] = Drug level in rat liver microsomes treated with trans-N-(2-(2-(((2S,5S)-2-(6-Aminopyridin-3-yl)-5-methylmorpholino)methyl)cyclopropyl)ethyl)-1H-indole-2-carboxamide assessed as metabolite formation at 10 uM measured after 60 mins in presence of NADPH by LC-HRMS analysis; format: ADME, Microsome
D(3) dopamine receptor = D(3) dopamine receptor (Homo sapiens, UniProt P35462); test: Displacement of [3H]-(R)-(+)-7-OH-DPAT from recombinant human D3 receptor expressed in HEK293 cell membranes measured after 90 mins by microbeta scintillation counting analysis
D(2) dopamine receptor = D(2) dopamine receptor (Homo sapiens, UniProt P14416); test: Displacement of [3H]-(R)-(+)-7-OH-DPAT from recombinant human D2L receptor expressed in HEK293 cell membranes measured after 90 mins by microbeta scintillation counting analysis
Homo sapiens [3] = species on record: Homo sapiens; test: Selectivity ratio of Ki for displacement of [3H]-(R)-(+)-7-OH-DPAT from recombinant human D4.4 receptor expressed in HEK293 cell membranes to Ki for displacement of [3H]-(R)-(+)-7-OH-DPAT from recombinant human D3 receptor expressed in HEK293 cell membranes

D(3) dopamine receptor, sequence (P35462 whole entry): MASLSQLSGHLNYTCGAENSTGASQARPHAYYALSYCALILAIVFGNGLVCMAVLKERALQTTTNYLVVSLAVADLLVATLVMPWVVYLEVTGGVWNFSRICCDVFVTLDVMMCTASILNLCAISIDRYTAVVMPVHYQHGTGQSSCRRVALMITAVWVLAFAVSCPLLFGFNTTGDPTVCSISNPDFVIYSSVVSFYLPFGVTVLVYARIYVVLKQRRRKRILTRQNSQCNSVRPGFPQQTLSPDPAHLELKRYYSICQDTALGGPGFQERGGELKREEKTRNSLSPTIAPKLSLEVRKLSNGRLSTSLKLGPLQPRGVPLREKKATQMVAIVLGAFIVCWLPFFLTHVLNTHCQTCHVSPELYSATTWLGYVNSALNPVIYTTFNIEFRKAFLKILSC
D(2) dopamine receptor, sequence (P14416 whole entry): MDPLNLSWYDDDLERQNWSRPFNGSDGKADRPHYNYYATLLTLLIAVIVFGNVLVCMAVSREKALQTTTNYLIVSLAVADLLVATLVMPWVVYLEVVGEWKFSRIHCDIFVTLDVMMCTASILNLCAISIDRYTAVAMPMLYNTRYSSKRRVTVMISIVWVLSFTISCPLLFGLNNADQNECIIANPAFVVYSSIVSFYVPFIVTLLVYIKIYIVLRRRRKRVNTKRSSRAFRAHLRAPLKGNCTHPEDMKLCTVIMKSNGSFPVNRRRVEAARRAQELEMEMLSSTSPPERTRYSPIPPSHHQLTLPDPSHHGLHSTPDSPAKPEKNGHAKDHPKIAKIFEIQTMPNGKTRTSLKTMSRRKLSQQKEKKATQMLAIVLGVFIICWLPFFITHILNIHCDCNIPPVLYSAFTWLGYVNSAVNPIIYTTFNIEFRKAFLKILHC

Row | SMILES | Ratio Ki (Homo sapiens [1]) | also measured
1 | CCCN(CCC)c1ccc(C2CN(CCC)[C@@H](C)CO2)cn1 (stereo partly specified) | 0.391 | Ki (D(4) dopamine receptor): > 100 µM
2 | C[C@H]1CO[C@@H](c2ccc(N)nc2)CN1CC1CC1CNC(=O)c1cc2ccccc2[nH]1 (stereo in doubt; form 2) | 1.75 | –
3 | CCCN1CCO[C@@H]2c3cc(OCCCCNC(=O)c4ccc5c(c4)Cc4ccccc4-5)ccc3OC[C@H]21 | 8.33 | –
4 | O=C(NCCCCNC1COc2ccc(O)cc2C1=O)c1cc2ccccc2[nH]1 (stereo in doubt; 19b) | 0.808 | –
5 | CCCN1CCO[C@@H]2c3cc(OCCCCNC(=O)c4nc5ccccc5s4)ccc3OC[C@H]21 | 4.14 | –
6 | C[C@H]1COC(c2cnc(N)c(O)c2)CN1CC1CC1CCNC(=O)c1cc2ccccc2[nH]1 (stereo partly specified) | – | Drug metabolism [2]: Metabolite_Detected
7 | CCCN1CCO[C@@H]2c3cc(OCCCCNC(=O)c4cc5cccnc5[nH]4)ccc3OC[C@H]21 | 3.12 | –
8 | O=C(NCCCCNC1COc2ccc(O)cc2C1=O)c1cc2ccccc2[nH]1 (stereo in doubt; 19a) | 0.71 | –
9 | CC1=COC(c2ccc(N)nc2)CN1CC1CC1CCNC(=O)c1cc2ccccc2[nH]1 (stereo unspecified) | – | Drug metabolism [2]: Metabolite_Detected
10 | CCCN1CCO[C@@H]2c3cc(OCCCCNC(=O)c4ccc5scnc5c4)ccc3OC[C@H]21 | 4.3 | –
11 | CCCN1CCO[C@@H]2c3cc(OCCCCNC(=O)c4cc5ccccc5o4)ccc3OC[C@H]21 | 1.57 | –
12 | C[C@H]1CO[C@H](c2ccc(N)nc2)CN1CC1CC1CNC(=O)c1cc2ccccc2[nH]1 (stereo in doubt; form 1) | 0.431 | –
13 | O=C1CCc2ccc(OCCCCN3CCO[C@@H]4c5cc(O)ccc5OC[C@H]43)cc2N1 | 0.554 | –
14 | CCc1cc(Cl)c(OC)c(N2CCN(CCCCOc3ccc4c(c3)NC(=O)CC4)CC2)c1 | 0.0455 | Ki (D(3) dopamine receptor): 0.0409 µM; Ki (D(2) dopamine receptor): 0.00186 µM
15 | C[C@H]1CO[C@@H](c2ccc(N)nc2)CN1C/C=C/COc1ccc2c(c1)NC(=O)CC2 | 0.297 | –
16 | C[C@H]1CO[C@H](c2ccc(N)nc2)CN1CCCCOc1ccc2c(c1)NC(=O)CC2 | 0.11 | –
17 | C[C@H]1COC(c2ccc(N)nc2)CN1CCCCOc1ccc2c(c1)NC(=O)CC2 (stereo partly specified) | 0.653 | Ratio Ki (Homo sapiens [3]): 18.6

Row | SMILES | Ratio Ki (Homo sapiens [1]) | also measured
18 | C[C@H]1CO[C@H](c2ccc(N)nc2)CN1C/C=C/COc1ccc2c(c1)NC(=O)CC2 | 0.289 | –
19 | C[C@H]1CO[C@H](c2ccc(N)nc2)CN1 | 4.67 | –
20 | CCCN1CC(c2ccc(N)nc2)OC[C@@H]1C (stereo partly specified) | 9.41 | Ratio Ki (Homo sapiens [3]): 1.58
21 | CCCN1CCO[C@@H]2c3cc(OCCCCNC(=O)c4cc5ccccc5[nH]4)ccc3OC[C@H]21 | 6.3 | –
22 | C[C@H]1CO[C@@H](c2ccc(N)nc2)CN1CC1CC1CNC(=O)c1cc2ccccc2[nH]1 (stereo in doubt; form 3) | 0.498 | –
23 | C[C@H]1CO[C@@H](c2ccc(N)nc2)CN1 | 5.52 | Drug metabolism [2]: Metabolite_Detected
24 | C[C@H]1CO[C@@H](c2ccc(N)nc2)CN1CC1CC1CNC(=O)c1cc2ccccc2[nH]1 (stereo in doubt; form 4) | 0.435 | –
25 | CCCN1CCO[C@@H]2c3cc(OCCCCOc4ccc5c(c4)NC(=O)CC5)ccc3OC[C@H]21 | 6.35 | –
26 | Oc1ccc2c(c1)[C@H]1OCCN[C@@H]1CO2 | 10.5 | –
27 | C[C@H]1CO[C@H](c2ccc(N)nc2)CN1CC1CC1CNC(=O)c1cc2ccccc2[nH]1 (mixture of isomers) [listing 1 of 2 here] | 0.213 | –
28 | C[C@H]1CO[C@H](c2ccc(N)nc2)CN1CC1CC1CNC(=O)c1cc2ccccc2[nH]1 (stereo in doubt; form 2) | 0.235 | –
29 | C[C@H]1CO[C@@H](c2ccc(N)nc2)CN1CCCCOc1ccc2c(c1)NC(=O)CC2 | 1.11 | –
30 | C[C@H]1CO[C@@H](c2ccc(N)nc2)CN1CC1CC1CNC(=O)c1cc2ccccc2[nH]1 (stereo in doubt; form 1) | 0.182 | –
31 | CCCN1CCO[C@@H]2c3cc(O)ccc3OC[C@H]21 | 12.1 | Ratio Ki (Homo sapiens [3]): 15.7
32 | C[C@H]1CO[C@H](c2ccc(N)nc2)CN1CC1CC1CNC(=O)c1cc2ccccc2[nH]1 (mixture of isomers) [listing 2 of 2 here] | – | Ki (D(3) dopamine receptor): 66.2 µM; Ki (D(2) dopamine receptor): 14.1 µM
33 | CCCN1CCO[C@@H]2c3cc(OCCCCN4C(=O)c5ccccc5C4=O)ccc3OC[C@H]21 | 2.11 | –

From ChEMBL document CHEMBL4359839, “The Significance of Chirality in Drug Design and Synthesis of Bitopic Ligands as D3 Receptor (D3R) Selective Agonists” (J Med Chem, 2019)
